Assay results reported in ChEMBL document CHEMBL1201862, “PubChem BioAssay data set” (2004).
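Five compound concentrations were applied to cells in 96-well plates for 48 hours; endpoints were derived by simple linear interpolation of the resulting dose-response curve. GI50 = concentration required for 50% inhibition of growth.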 Active and inactive are the calls of the source. No stated cut-off is given here; in the data, active = GI50 up to about 1.1 µM and inactive = higher.

Key:
Experiment in all cases: inhibition of tumour cell growth, NCI panel, 48 h
A498 = system: A498
CCRF-CEM = system: CCRF-CEM
HT-29 = system: HT-29
Hs-578T = system: Hs-578T
LOX IMVI = system: LOX IMVI
MCF7 = system: MCF7
MDA-MB-231 = system: MDA-MB-231
NCI-H522 = system: NCI-H522
NCI/ADR-RES = system: NCI/ADR-RES
RXF 393 = system: RXF 393
SF-268 = system: SF-268
SF-295 = system: SF-295
SN12C = system: SN12C
SNB-75 = system: SNB-75
T47D = system: T47D
TK-10 = system: TK-10
U-251 = system: U-251
UACC-62 = system: UACC-62
IGROV-1 = system: IGROV-1
Malme-3M = system: Malme-3M

Measured: GI50

O=P1(N(CCCl)CCCl)Oc2ccc(Cl)cc2Sc2c(ccc(Cl)c2Cl)O1 (stereo not drawn)
inactive: A498 22.2 µM | CCRF-CEM 4.41 µM | HT-29 7.29 µM | Hs-578T 2.13 µM | LOX IMVI 14.6 µM | MCF7 6.38 µM | MDA-MB-231 12.3 µM | NCI-H522 6.4 µM | NCI/ADR-RES 6.04 µM | RXF 393 3.95 µM | SF-268 92.9 µM | SF-295 3.18 µM | SN12C 11.9 µM | SNB-75 18.8 µM | T47D 8.38 µM | TK-10 9.18 µM | U-251 6.76 µM | UACC-62 17.1 µM

Nc1nc2c(c(-c3ccccc3Cl)n1)COC/C2=C\c1ccccc1Cl
inactive: A498 16.4 µM | CCRF-CEM 11.7 µM | Hs-578T 21.8 µM | IGROV-1 15.8 µM | LOX IMVI 18.7 µM | MCF7 14.5 µM | MDA-MB-231 16.9 µM | NCI-H522 14.6 µM | NCI/ADR-RES 16.8 µM | RXF 393 16 µM | SF-268 16.9 µM | SF-295 14.3 µM | SN12C 16.6 µM | SNB-75 15.9 µM | T47D 17.1 µM | TK-10 17.6 µM | U-251 16.8 µM | UACC-62 16 µM

COc1ccc(N2C(=O)C3c4[nH]c5cccc(C)c5c4C4CCC(C(C)(C)C)CC4C3C2=O)cc1 (stereo not drawn)
inactive: A498 > 10 µM | HT-29 > 10 µM | Hs-578T > 10 µM | IGROV-1 > 10 µM | LOX IMVI 8.3 µM | MCF7 > 10 µM | MDA-MB-231 > 10 µM | Malme-3M > 10 µM | NCI-H522 > 10 µM | NCI/ADR-RES > 10 µM | RXF 393 > 10 µM | SF-268 > 10 µM | SF-295 > 10 µM | SN12C > 10 µM | SNB-75 5.15 µM | T47D > 10 µM | TK-10 > 10 µM | U-251 9.91 µM | UACC-62 > 10 µM

COc1ccc(/N=N/C(=N\c2ccc(F)cc2)c2ccc(N(CCC#N)CCC#N)cc2)cc1
inactive: A498 21.4 µM | CCRF-CEM 36.1 µM | HT-29 39.5 µM | Hs-578T 27.4 µM | IGROV-1 19.9 µM | MCF7 28.4 µM | MDA-MB-231 14.3 µM | NCI-H522 20 µM | NCI/ADR-RES > 100 µM | RXF 393 15.4 µM | SF-268 35.2 µM | SF-295 32.9 µM | SN12C 31.8 µM | SNB-75 24 µM | T47D 11.2 µM | TK-10 46.5 µM | U-251 13.9 µM | UACC-62 15.7 µM

NS(=O)(=O)c1ccc(C(=O)O)cc1 [CARZENIDE]
inactive: A498 > 100 µM | CCRF-CEM > 100 µM | HT-29 > 100 µM | Hs-578T > 100 µM | IGROV-1 > 100 µM | LOX IMVI > 100 µM | MCF7 > 100 µM | MDA-MB-231 > 100 µM | Malme-3M > 100 µM | NCI-H522 > 100 µM | NCI/ADR-RES > 100 µM | RXF 393 > 100 µM | SF-268 > 100 µM | SF-295 > 100 µM | SN12C > 100 µM | T47D > 100 µM | TK-10 > 100 µM | U-251 > 100 µM | UACC-62 > 100 µM

CC(C)SC(=S)Sc1c(Cl)c(Cl)nc(Cl)c1Cl
inactive: A498 17.1 µM | CCRF-CEM 1.91 µM | HT-29 3.4 µM | Hs-578T 18.6 µM | IGROV-1 7.33 µM | LOX IMVI 2.39 µM | MCF7 4.06 µM | MDA-MB-231 12.7 µM | Malme-3M 15.7 µM | NCI-H522 4.9 µM | NCI/ADR-RES 20.3 µM | RXF 393 4.57 µM | SF-268 16.9 µM | SF-295 16.3 µM | SN12C 13 µM | T47D 1.96 µM | TK-10 5.97 µM | U-251 3.98 µM | UACC-62 9.35 µM

O=C(O)c1cc(C(=O)O)cc(N2C(=O)c3ccccc3C2=O)c1
inactive: A498 > 100 µM | HT-29 > 100 µM | Hs-578T > 100 µM | IGROV-1 > 100 µM | LOX IMVI > 100 µM | MCF7 > 100 µM | MDA-MB-231 > 100 µM | Malme-3M > 100 µM | NCI-H522 > 100 µM | NCI/ADR-RES > 100 µM | RXF 393 > 100 µM | SF-268 > 100 µM | SF-295 > 100 µM | SN12C > 100 µM | SNB-75 > 100 µM | T47D > 100 µM | TK-10 > 100 µM | U-251 > 100 µM | UACC-62 > 100 µM

Nc1ncnc2c1cnn2COCC(O)CO (stereo not drawn)
inactive: A498 > 100 µM | CCRF-CEM > 100 µM | HT-29 > 100 µM | Hs-578T > 100 µM | IGROV-1 > 100 µM | LOX IMVI > 100 µM | MCF7 > 100 µM | MDA-MB-231 > 100 µM | Malme-3M > 100 µM | NCI-H522 > 100 µM | NCI/ADR-RES > 100 µM | RXF 393 > 100 µM | SF-268 > 100 µM | SF-295 > 100 µM | SN12C > 100 µM | T47D > 100 µM | TK-10 > 100 µM | U-251 > 100 µM | UACC-62 > 100 µM

Cn1c(-c2ccccc2)c2cc3nc4ccccc4nc3cc2c1-c1ccccc1
inactive: A498 19.6 µM | HT-29 17.8 µM | Hs-578T 10.6 µM | IGROV-1 17.5 µM | LOX IMVI 14 µM | MCF7 12.1 µM | MDA-MB-231 24.2 µM | Malme-3M 30.1 µM | NCI-H522 15.2 µM | NCI/ADR-RES 23.2 µM | RXF 393 22.3 µM | SF-268 19 µM | SF-295 14.4 µM | SN12C 13.3 µM | SNB-75 26.5 µM | T47D 24.5 µM | TK-10 41 µM | U-251 19.8 µM | UACC-62 11.7 µM

CCCCCCCCNC(=O)C1=C(C)NC(C)=C(C(=O)NCCCCCCCC)C1
inactive: CCRF-CEM 39.6 µM | HT-29 82.8 µM | Hs-578T > 100 µM | IGROV-1 > 100 µM | LOX IMVI > 100 µM | MCF7 > 100 µM | MDA-MB-231 69.3 µM | NCI-H522 > 100 µM | NCI/ADR-RES > 100 µM | RXF 393 > 100 µM | SF-268 > 100 µM | SF-295 > 100 µM | SN12C > 100 µM | SNB-75 23.2 µM | T47D 48.2 µM | TK-10 > 100 µM | U-251 94.4 µM | UACC-62 > 100 µM

CC1(CO)COC(C)(C)OC1
inactive: A498 > 100 µM | CCRF-CEM > 100 µM | HT-29 > 100 µM | Hs-578T > 100 µM | LOX IMVI > 100 µM | MCF7 > 100 µM | MDA-MB-231 > 100 µM | NCI-H522 > 100 µM | NCI/ADR-RES > 100 µM | RXF 393 > 100 µM | SF-268 > 100 µM | SF-295 > 100 µM | SN12C > 100 µM | SNB-75 > 100 µM | T47D > 100 µM | TK-10 > 100 µM | U-251 > 100 µM
